The source of these data is ChEMBL document CHEMBL1201862, “PubChem BioAssay data set” (2004).

For assay [1], the target named is T1, Low molecular weight phosphotyrosine protein phosphatase (Homo sapiens, UniProt P24666).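 Further: Dose-response confirmation assay measuring inhibition of LMPTP enzyme activity by fluorescence intensity read-out.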
T1 sequence (P24666 whole entry): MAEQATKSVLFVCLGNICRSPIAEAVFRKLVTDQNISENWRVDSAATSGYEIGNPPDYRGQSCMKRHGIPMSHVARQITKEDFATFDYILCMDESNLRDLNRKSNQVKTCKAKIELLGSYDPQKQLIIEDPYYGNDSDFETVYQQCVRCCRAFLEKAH
The class given is functional. The note with it: read-out: IC50_Mean.

The nature of assay [2]: HEK293T cytotoxicity, dose response, cytotoxicity control for miR-122 modulator project, cell-based, inhibitor set, cherry-pick, set 2 (AID 720697). Format: functional.
Assay [3] has as its target Eukaryotic translation initiation factor 4E (Mus musculus, UniProt P63073). Put plainly: eIF4E–eIF4G protein interaction inhibitors, dose response, biochemical, TR-FRET (AID 855).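 Further: potency for disrupting eIF4E binding to eIF4GI seen as loss of FRET.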 The class given is functional. Background: In TR-FRET formats the signal depends on donor and acceptor labels being close together.
In assay [4] the target is T2, Mannose-6-phosphate isomerase (Homo sapiens, UniProt P34949).
T2 sequence (P34949 whole entry): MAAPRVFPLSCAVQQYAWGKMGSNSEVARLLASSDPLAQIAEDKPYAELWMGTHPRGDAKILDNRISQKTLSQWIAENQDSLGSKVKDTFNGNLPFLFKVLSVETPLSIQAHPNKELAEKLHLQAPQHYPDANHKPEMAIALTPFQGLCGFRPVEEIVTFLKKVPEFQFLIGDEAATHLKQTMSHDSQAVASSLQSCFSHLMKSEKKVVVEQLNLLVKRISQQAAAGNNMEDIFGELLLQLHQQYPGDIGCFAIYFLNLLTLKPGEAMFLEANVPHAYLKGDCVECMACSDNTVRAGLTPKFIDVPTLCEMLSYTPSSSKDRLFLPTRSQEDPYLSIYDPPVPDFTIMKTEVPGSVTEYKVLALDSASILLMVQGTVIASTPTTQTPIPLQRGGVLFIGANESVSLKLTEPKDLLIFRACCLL
Put plainly: human PMI inhibitors, high substrate, primary screen, biochemical, fluorescence intensity, high mannose 6-phosphate (AID 1220).

Assay [5] is described as follows: inhibitors of firefly luciferase expression or activity, dose response, H4 neuroglioma cells, luminescence (AID 1990). The class given is functional, cell-based.
The nature of assay [6]: inhibitors of SNCA 5'UTR-driven reporter translation, confirmation, H4 neuroglioma cells, luminescence (AID 1988). Format: functional, cell-based.
Assay [7] is described as follows: Luminescence Cell-Based Dose Response HTS to Identify Inhibitors of 5'UTR Stem-Loop Driven Prion Protein mRNA Translation in H4 Neuroglioblastoma Cells. [Related pubchem assays: 1827 (Project Summary), 1813 (Primary HTS)]. The class given is functional.
Another assay deals with T3, Protein RecA (Mycobacterium tuberculosis, UniProt P9WHJ3).
T3 sequence (P9WHJ3 whole entry): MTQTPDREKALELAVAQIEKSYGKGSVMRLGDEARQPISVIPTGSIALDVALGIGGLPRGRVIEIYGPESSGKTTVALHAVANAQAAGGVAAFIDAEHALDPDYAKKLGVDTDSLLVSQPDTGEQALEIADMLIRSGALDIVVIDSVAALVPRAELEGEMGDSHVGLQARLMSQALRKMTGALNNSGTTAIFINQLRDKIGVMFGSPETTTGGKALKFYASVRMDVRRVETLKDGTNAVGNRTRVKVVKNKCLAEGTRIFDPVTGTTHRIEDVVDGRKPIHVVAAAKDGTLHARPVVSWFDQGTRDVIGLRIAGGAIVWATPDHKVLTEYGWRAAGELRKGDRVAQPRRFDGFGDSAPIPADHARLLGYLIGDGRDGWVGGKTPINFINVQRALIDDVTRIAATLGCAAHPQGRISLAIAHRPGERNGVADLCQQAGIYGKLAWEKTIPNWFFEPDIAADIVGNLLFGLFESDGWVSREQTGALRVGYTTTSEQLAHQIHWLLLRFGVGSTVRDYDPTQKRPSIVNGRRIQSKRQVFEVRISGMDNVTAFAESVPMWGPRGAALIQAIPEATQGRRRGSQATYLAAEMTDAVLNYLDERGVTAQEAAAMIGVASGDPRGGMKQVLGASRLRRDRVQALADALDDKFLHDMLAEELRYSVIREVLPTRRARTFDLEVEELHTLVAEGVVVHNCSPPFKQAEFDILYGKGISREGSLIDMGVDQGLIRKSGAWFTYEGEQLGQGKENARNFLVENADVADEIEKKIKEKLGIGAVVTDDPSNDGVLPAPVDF
Put plainly: Fluorescence Cell-Free Homogeneous Dose Retest to Identify Inhibitors of RecA-Intein Splicing Activity. [Related pubchem assays (depositor defined):AID2097, AID2223, AID489010, AID492950]. Format: functional.

For another assay, the target named is Genome polyprotein (dengue virus type 2, UniProt P29990). In words: Dengue-2 NS5 methyltransferase inhibitors, primary screen, biochemical, confirmation dose response (AID 588689). Format: functional.
Genome polyprotein, sequence (P29990 2492-3391 limits assumed): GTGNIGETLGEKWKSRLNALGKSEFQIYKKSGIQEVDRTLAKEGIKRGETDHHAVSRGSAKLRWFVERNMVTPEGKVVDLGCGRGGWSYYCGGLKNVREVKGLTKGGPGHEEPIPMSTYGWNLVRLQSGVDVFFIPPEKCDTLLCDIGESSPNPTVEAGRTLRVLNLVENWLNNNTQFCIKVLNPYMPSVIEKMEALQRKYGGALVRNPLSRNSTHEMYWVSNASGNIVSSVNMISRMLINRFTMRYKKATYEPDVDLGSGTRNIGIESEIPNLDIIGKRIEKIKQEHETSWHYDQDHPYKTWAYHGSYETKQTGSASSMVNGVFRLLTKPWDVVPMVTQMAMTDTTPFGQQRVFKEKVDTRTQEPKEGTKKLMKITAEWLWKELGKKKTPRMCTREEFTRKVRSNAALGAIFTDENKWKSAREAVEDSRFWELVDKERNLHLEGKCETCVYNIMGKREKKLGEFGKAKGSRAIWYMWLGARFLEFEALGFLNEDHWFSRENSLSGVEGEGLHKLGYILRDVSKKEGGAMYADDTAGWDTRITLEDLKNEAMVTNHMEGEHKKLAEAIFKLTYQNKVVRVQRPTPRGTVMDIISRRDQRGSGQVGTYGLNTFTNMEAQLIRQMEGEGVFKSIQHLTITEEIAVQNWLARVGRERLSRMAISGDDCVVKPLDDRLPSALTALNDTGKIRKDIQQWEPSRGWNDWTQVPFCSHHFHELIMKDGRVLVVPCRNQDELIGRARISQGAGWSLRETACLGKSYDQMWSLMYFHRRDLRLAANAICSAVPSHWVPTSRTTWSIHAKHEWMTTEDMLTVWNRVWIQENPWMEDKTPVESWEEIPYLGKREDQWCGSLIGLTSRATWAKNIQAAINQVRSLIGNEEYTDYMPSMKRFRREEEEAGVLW
Assay [8] addresses T4, Replicative DNA helicase DnaB (Mycobacterium tuberculosis, UniProt P9WMR3).
T4 sequence (P9WMR3 whole entry): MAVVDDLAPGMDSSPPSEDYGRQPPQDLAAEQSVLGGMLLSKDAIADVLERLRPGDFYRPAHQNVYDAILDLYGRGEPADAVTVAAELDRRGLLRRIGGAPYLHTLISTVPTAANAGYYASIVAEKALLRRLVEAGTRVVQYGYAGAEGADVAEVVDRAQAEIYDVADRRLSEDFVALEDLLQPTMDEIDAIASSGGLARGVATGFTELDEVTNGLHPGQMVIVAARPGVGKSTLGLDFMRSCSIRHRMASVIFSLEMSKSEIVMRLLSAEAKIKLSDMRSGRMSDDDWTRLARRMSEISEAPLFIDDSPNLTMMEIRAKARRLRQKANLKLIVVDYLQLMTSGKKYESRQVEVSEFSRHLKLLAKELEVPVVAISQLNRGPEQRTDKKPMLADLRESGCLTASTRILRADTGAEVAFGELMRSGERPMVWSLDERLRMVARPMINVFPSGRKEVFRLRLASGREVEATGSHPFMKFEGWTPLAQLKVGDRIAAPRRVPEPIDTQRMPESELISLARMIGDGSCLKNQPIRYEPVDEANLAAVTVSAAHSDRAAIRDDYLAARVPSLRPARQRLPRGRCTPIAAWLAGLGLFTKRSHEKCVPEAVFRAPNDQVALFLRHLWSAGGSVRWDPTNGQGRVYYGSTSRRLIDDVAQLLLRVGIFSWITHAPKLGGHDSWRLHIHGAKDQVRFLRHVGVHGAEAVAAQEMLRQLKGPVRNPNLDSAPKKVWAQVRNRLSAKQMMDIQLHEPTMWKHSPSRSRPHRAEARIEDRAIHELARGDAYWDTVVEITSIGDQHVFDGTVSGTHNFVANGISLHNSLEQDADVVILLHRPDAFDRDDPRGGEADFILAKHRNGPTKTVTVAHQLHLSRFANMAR
Put plainly: DnaB intein splicing inhibitors, dose response, biochemical, cell-free fluorescence (AID 449749). The class given is functional.

The nature of assay [9]: LGR2 antagonists, dose response, cell-based, HEK293, CRE-luciferase reporter, cherry pick, set 2 (AID 743343).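 Further: transfected cells were stimulated with diluted bursicon conditioned medium after compound addition.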 The class given is functional. In general terms: Reporter assays use an easily measured gene product as a stand-in for the process of interest.
Assay [10] in a line: MC4R antagonists, dose response, counter-screen for LGR2 antagonist project, cell-based, plate reader, cherry pick (AID 743444).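 Further: transfected HEK 293 cells stimulated with alpha-MSH peptide; potency of inhibitors of the alpha-MSH evoked signal.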 The class given is functional.
The nature of assay [11]: A549 cell cytotoxicity, dose response, cytotoxicity control, plate reader, cherry-pick, antagonist series (AID 743412). The class given is functional, cell-based.
Assay [12] addresses T5, Heat shock factor protein 1 (Mus musculus, UniProt P38532).
T5 sequence (P38532 whole entry): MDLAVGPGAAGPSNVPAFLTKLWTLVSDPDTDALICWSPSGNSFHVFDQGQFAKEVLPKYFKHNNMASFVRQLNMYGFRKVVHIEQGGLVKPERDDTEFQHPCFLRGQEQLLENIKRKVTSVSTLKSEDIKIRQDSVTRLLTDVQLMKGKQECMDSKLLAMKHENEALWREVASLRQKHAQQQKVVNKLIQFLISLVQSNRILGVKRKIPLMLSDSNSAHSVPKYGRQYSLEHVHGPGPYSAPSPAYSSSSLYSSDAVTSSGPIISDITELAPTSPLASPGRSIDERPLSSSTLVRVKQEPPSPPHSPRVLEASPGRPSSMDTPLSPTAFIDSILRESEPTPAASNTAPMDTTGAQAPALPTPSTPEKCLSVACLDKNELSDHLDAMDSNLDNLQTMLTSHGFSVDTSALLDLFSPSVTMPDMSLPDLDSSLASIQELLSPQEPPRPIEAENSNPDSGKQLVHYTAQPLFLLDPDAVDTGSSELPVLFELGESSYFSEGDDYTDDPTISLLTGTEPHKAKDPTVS
Put plainly: HSF1 potentiators in luciferase reporter cells, confirmation, cell-based, NIH3T3, luminescence, dose retest (AID 435004).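 Further: stress induced by proteasome inhibitor MG132 added 30 min after compound; luciferase reporter driven by HSF1 response element in NIH3T3 cells; actives raise luminescence as potentiators of the MG132 stress response.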 The class given is functional.

The source made the active and inactive calls.

Eukaryotic translation initiation factor 4E, sequence (P63073 whole entry): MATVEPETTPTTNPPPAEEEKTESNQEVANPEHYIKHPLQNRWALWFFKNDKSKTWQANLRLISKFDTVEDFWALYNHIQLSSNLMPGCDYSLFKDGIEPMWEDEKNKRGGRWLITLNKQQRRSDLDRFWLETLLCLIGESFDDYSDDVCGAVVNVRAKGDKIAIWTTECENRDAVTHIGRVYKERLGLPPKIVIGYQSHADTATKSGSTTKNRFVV

`COc1ccc(-c2cc(C(=O)Nc3cc(Br)ccc3O)no2)cc1`: in assay [1], the IC50 was 2.09 µM (active). In the case of `Cc1nnsc1Sc1cccc(C(F)(F)F)c1`, the AC50 in [2] was 8.67 µM (active).

`Nc1nc2c(s1)CCc1c-2cnn1-c1ccccc1`: the IC50 in [3] was > 64 µM (inactive); in assay [4] it was 1.42 µM (active). For the molecule `C/C=C/c1ccc([C@H]2[C@@H](CO)N(C(=O)C3CC3)[C@H]2CNC(=O)NC(C)C)cc1`, in [2], the AC50 is 0.558 µM (active). `Oc1cc(O)c2sc(Nc3ccc(F)cc3)nc2n1`: the IC50 in assay [4] is > 50 µM (not active).

In the case of `C(=C\c1nc(N2CCCC2)c2ccccc2n1)/c1ccccc1`, in assay [1], the IC50 is 8.49 µM (active). On the same count and under the same terms, as for `O=c1cc(CSc2nc(NCc3ccccc3)c3ccccc3n2)nc2ccc(Cl)cn12`, the figure is 26 µM (inactive). With `CCNC(=O)Nc1ccc2c(c1)C(=O)N(C)[C@@H]1CC[C@H](CC(=O)NCC3CC3)O[C@@H]1CO2`, the AC50 in assay [2] was 0.493 µM (active). Take `Nc1c(C(=O)N/N=C/c2ccc(OCc3ccccc3)cc2)cnn1-c1ccccc1`: the EC50 is > 120 µM (not active) in assay [5], 11.9 µM (active) in assay [6] and 21.9 µM (active) in assay [7]. Also, the IC50 in assay [1] is 25.9 µM (inactive). `COc1ccc(N2C(=O)C(Cl)=C(N3CCOCC3)C2=O)cc1`: the EC50 on Protein RecA is 3 µM (active). The IC50 on Genome polyprotein was 33.1 µM (active). The AC50 in assay [8] was 10.8 µM (active). Take `COCCn1c(C)cc(C(=O)CSc2nnnn2C2CCCC2)c1C`: the AC50 in assay [9] is 3.39 µM (active); in [10], 2.78 µM (active). Take `Oc1nc(CSc2ccccn2)nc2c1oc1ccccc12`: the half-maximal activity concentration (AC50) in [9] is 5.23 µM (active); in assay [11], > 52 µM (inactive); in assay [10] it was 6.77 µM (active). Besides, the EC50 in assay [12] was > 260 µM (inconclusive).

What is called AC50 is the midpoint of the concentration-response curve, whichever way the signal moves. One may read the EC50 as the midpoint of the concentration-response curve.
